# In PMC7377239, “Cardiovascular Effects of Polychlorinated Biphenyls and Their Major Metabolites” (Environmental Health Perspectives, 2020):
# Where a name gives a salt, the structure may show the parent alone. Read-outs that look alike come from different tables or passages of the source.
# How the values were obtained:
# HUVECs = assay: High-content imaging cytotoxicity in HUVECs, 24 h; format: cell-based, human; details: Homo sapiens, HUVEC, 24 h, HUVECs; for viability at 0.01 µM / activity at 0.01 µM / viability at 0.1 µM / activity at 0.1 µM / viability at 1 µM / activity at 1 µM / viability at 10 µM / activity at 10 µM / viability at 100 µM / activity at 100 µM: 0.00 µM = 100.00; for viability at 0.1 µM / activity at 0.1 µM: 0.10 µM; for minimal effective concentration: top concentration 100.00 µM
# Method in brief: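 Point-of-departure values derive from four-parameter logistic fits of vehicle-normalized imaging phenotypes (Hoechst 33342, MitoTracker Orange, calcein AM). The fits follow 24 h exposure of HUVEC monolayers at 37°C and 5% CO2, with a top tested concentration of 100μM.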
# [1] = tested on: iCell cardiomyocytes (human iPSC-derived cardiomyocytes); assay: High-content imaging of cytotoxicity and mitochondrial integrity in iPSC-CMs; format: cell-based; details: Homo sapiens; for viability at 0.01 µM / activity at 0.01 µM / viability at 0.1 µM / activity at 0.1 µM / viability at 1 µM / activity at 1 µM / viability at 10 µM / activity at 10 µM / viability at 100 µM / activity at 100 µM: Cardiomyocyte, 0.00 µM = 100.00; for viability at 0.1 µM / activity at 0.1 µM: 0.10 µM; for minimal effective concentration: iPSC-CM
# Method in brief: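 Human iPSC-derived cardiomyocytes were seeded on gelatin-coated 384-well plates at 5,000 cells per well and maintained for 12 d. Test chemicals were added as 10μL of 5× solutions to final concentrations of 0.01 to 100μM. Cells were stained with Hoechst 33342 and MitoTracker™ Orange, fixed in formaldehyde, and imaged by confocal high-content microscopy at 10× magnification.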
# [2] = 24 hr, read-out: huvec.cyto.24hr
# [3] = 24 hr, read-out: huvec.mito.24hr
# [4] = 24 hr, read-out: huvec.mitoint.24hr
# [5] = 24 hr, read-out: huvec.nma.24hr
# [6] = 24 hrs, read-out: huvec.tc.24hrs
smiles,measurement,setting,value
O=S(=O)(O)Oc1cc(-c2ccccc2)ccc1Cl [3-yl PCB 3 sulfate],viability at 0.01 µM,HUVECs; [2],78.2%
same,activity at 0.01 µM,HUVECs; [3],77.8%
same,activity at 0.01 µM,HUVECs; [4],93.6%
same,activity at 0.01 µM,HUVECs; [5],96.6%
same,viability at 0.1 µM,HUVECs; [2],95.5%
same,activity at 0.1 µM,HUVECs; [3],95.5%
same,activity at 0.1 µM,HUVECs; [4],110%
same,activity at 0.1 µM,HUVECs; [5],102%
same,viability at 1 µM,HUVECs; [2],95.1%
same,activity at 1 µM,HUVECs; [3],94%
same,activity at 1 µM,HUVECs; [4],93.8%
same,activity at 1 µM,HUVECs; [5],95.5%
same,viability at 10 µM,HUVECs; [2],91.1%
same,activity at 10 µM,HUVECs; [3],89.7%
same,activity at 10 µM,HUVECs; [4],80.7%
same,activity at 10 µM,HUVECs; [5],93.3%
same,viability at 100 µM,HUVECs; [2],98.8%
same,activity at 100 µM,HUVECs; [3],97.9%
same,activity at 100 µM,HUVECs; [4],105%
same,activity at 100 µM,HUVECs; [5],96%
same,minimal effective concentration,"HUVECs; 24 hr, read-out: huvec.cyto.24hr POD",100 µM
same,minimal effective concentration,"HUVECs; 24 hr, read-out: huvec.mito.24hr POD",100 µM
same,minimal effective concentration,"HUVECs; 24 hr, read-out: huvec.mitoint.24hr POD",100 µM
same,minimal effective concentration,"HUVECs; 24 hr, read-out: huvec.nma.24hr POD",100 µM
same,viability at 0.01 µM,HUVECs; [6],78.4%
same,viability at 0.1 µM,HUVECs; [6],95.5%
same,viability at 1 µM,HUVECs; [6],95.1%
same,viability at 10 µM,HUVECs; [6],91.1%
same,viability at 100 µM,HUVECs; [6],98.8%
same,minimal effective concentration,"HUVECs; 24 hrs, read-out: huvec.tc.24hrs POD",100 µM
same,viability at 0.01 µM,"[1]; 1.5 h, read-out: cm.cam.90min",100%
same,activity at 0.01 µM,"[1]; 1.5 h, read-out: cm.mii.90min",110%
same,activity at 0.01 µM,"[1]; 1.5 h, read-out: cm.mito.90min",100%
same,viability at 0.01 µM,"[1]; 1.5 h, read-out: cm.tc.90min",101%
same,viability at 0.1 µM,"[1]; 1.5 h, read-out: cm.cam.90min",97.4%
same,activity at 0.1 µM,"[1]; 1.5 h, read-out: cm.mii.90min",109%
same,activity at 0.1 µM,"[1]; 1.5 h, read-out: cm.mito.90min",97.4%
same,viability at 0.1 µM,"[1]; 1.5 h, read-out: cm.tc.90min",97.6%
same,viability at 1 µM,"[1]; 1.5 h, read-out: cm.cam.90min",104%
same,activity at 1 µM,"[1]; 1.5 h, read-out: cm.mii.90min",106%
same,activity at 1 µM,"[1]; 1.5 h, read-out: cm.mito.90min",104%
same,viability at 1 µM,"[1]; 1.5 h, read-out: cm.tc.90min",104%
same,viability at 10 µM,"[1]; 1.5 h, read-out: cm.cam.90min",106%
same,activity at 10 µM,"[1]; 1.5 h, read-out: cm.mii.90min",98.4%
same,activity at 10 µM,"[1]; 1.5 h, read-out: cm.mito.90min",106%
same,viability at 10 µM,"[1]; 1.5 h, read-out: cm.tc.90min",106%
same,viability at 100 µM,"[1]; 1.5 h, read-out: cm.cam.90min",104%
same,activity at 100 µM,"[1]; 1.5 h, read-out: cm.mii.90min",108%
same,activity at 100 µM,"[1]; 1.5 h, read-out: cm.mito.90min",104%
same,viability at 100 µM,"[1]; 1.5 h, read-out: cm.tc.90min",104%
same,viability at 0.01 µM,"[1]; 24 h, read-out: cm.cam.24hrs",87.7%
same,activity at 0.01 µM,"[1]; 24 h, read-out: cm.mii.24hrs",113%
same,activity at 0.01 µM,"[1]; 24 h, read-out: cm.mito.24hrs",86%
same,viability at 0.01 µM,"[1]; 24 h, read-out: cm.tc.24hrs",88.2%
same,viability at 0.1 µM,"[1]; 24 h, read-out: cm.cam.24hrs",99.9%
same,activity at 0.1 µM,"[1]; 24 h, read-out: cm.mii.24hrs",109%
same,activity at 0.1 µM,"[1]; 24 h, read-out: cm.mito.24hrs",99.5%
same,viability at 0.1 µM,"[1]; 24 h, read-out: cm.tc.24hrs",101%
same,viability at 1 µM,"[1]; 24 h, read-out: cm.cam.24hrs",96.5%
same,activity at 1 µM,"[1]; 24 h, read-out: cm.mii.24hrs",102%
same,activity at 1 µM,"[1]; 24 h, read-out: cm.mito.24hrs",93.7%
same,viability at 1 µM,"[1]; 24 h, read-out: cm.tc.24hrs",96.4%
same,viability at 10 µM,"[1]; 24 h, read-out: cm.cam.24hrs",91.9%
same,activity at 10 µM,"[1]; 24 h, read-out: cm.mii.24hrs",89.9%
same,activity at 10 µM,"[1]; 24 h, read-out: cm.mito.24hrs",88.6%
same,viability at 10 µM,"[1]; 24 h, read-out: cm.tc.24hrs",92.3%
same,viability at 100 µM,"[1]; 24 h, read-out: cm.cam.24hrs",96.9%
same,activity at 100 µM,"[1]; 24 h, read-out: cm.mii.24hrs",83.9%
same,activity at 100 µM,"[1]; 24 h, read-out: cm.mito.24hrs",97.6%
same,viability at 100 µM,"[1]; 24 h, read-out: cm.tc.24hrs",97.8%
same,minimal effective concentration,"[1]; 1.5 h, read-out: cm.cam.90min POD",100 µM
same,minimal effective concentration,"[1]; 1.5 h, read-out: cm.mii.90min POD",100 µM
same,minimal effective concentration,"[1]; 1.5 h, read-out: cm.mito.90min POD",100 µM
same,minimal effective concentration,"[1]; 1.5 h, read-out: cm.tc.90min POD",100 µM
same,minimal effective concentration,"[1]; 24 h, read-out: cm.cam.24hrs POD",100 µM
same,minimal effective concentration,"[1]; 24 h, read-out: cm.mii.24hrs POD",22.8 µM
same,minimal effective concentration,"[1]; 24 h, read-out: cm.mito.24hrs POD",100 µM
same,minimal effective concentration,"[1]; 24 h, read-out: cm.tc.24hrs POD",100 µM
